In PMC8438204, “Unraveling the Thermodynamics of Ultra-tight Binding of Intrinsically Disordered Proteins” (Frontiers in Molecular Biosciences, 2021):
Read-outs that look alike come from different tables or passages of the source. Marks after values point to notes of the source that are not given here.

Columns and labels:
[1] = target: T1, HigB2 toxin (Vibrio cholerae serotype O1, UniProt Q9KMA6); assay: Competition ITC (global fit of direct and competition titrations with nanobody-HigB2 complex); type: binding; parameters: made in house; details: for ΔG (association): competition ITC (Nb6/Nb10), VP-ITC, 4 µM HigB2; for ΔG (association) / ΔH (association) / −TΔS (association): 20 mM sodium phosphate pH 7.5, 150 mM NaCl, three replicates
T1 sequence (Q9KMA6 1-110): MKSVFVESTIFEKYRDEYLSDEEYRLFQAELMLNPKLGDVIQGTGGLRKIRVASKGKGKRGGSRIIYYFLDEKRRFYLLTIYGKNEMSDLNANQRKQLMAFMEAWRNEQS

[2] = system: CcdB2; details: ref Drobnak et al., 2013, cited from earlier work
Protocol: Supplement DataSheet1.docx, table 1: Table S1. Thermodynamic parameters and structural properties of the complexes. All parameters are reported at T = 25°C. | column: Thermodynamic parameters || Nonetheless, a handful of examples of IDP binders with ultra-high affinity have been characterized to date. […] Complexes are ordered according to the degree of energy optimization as estimated by the ΔH bind/ASAint values. For the HigA2_3-23-HigB2 complex the degree of energy optimization is similar to one observed for the pairs of globular high affinity binders (Supplementary Table S1, Figure 3A). […] The high affinit ...

[3] = system: E9-Im9 (colicin DNase - immunity protein); details: ref Keeble et al., 2006, cited from earlier work
Protocol: Supplement DataSheet1.docx, table 1: Table S1. Thermodynamic parameters and structural properties of the complexes. All parameters are reported at T = 25°C. | column: Thermodynamic parameters

[4] = target: T1, HigB2 toxin; details: full-length HigA2; temperature-dependent ITC; ref Hadži et al., 2017a; cited from earlier work
[5] = 25°C, competition ITC, listed as Full-length HigA2

CC(C)C[C@H](NC(=O)[C@H](C)NC(=O)[C@H](CO)NC(=O)[C@H](CO)NC(=O)[C@H](CC(C)C)NC(=O)[C@H](CCC(=O)O)NC(=O)[C@H](C)NC(=O)[C@H](Cc1ccccc1)NC(=O)[C@H](CC(C)C)NC(=O)[C@H](CC(=O)O)NC(=O)[C@H](CCCNC(=N)N)NC(=O)[C@@H](N)CC(N)=O)C(=O)N[C@H](C(=O)N[C@@H](CCC(=O)O)C(=O)N[C@@H](C)C(=O)N[C@@H](CCCCN)C(=O)N[C@@H](CCC(N)=O)C(=O)N[C@@H](Cc1c[nH]cn1)C(=O)N[C@@H](CO)C(=O)N[C@@H](CCC(=O)O)C(=O)NCC(=O)N[C@@H](Cc1c[nH]c2ccccc12)C(=O)O)C(C)C [HigA2_3-23]
Kd [1]: 3 pM

CcdA37-72 (RRLRAERWKAENQEGMAEVARFIEMNGSFADENRDW; UniProt P62552 37-72, looked up, fragment)
-TΔS (binding) ([2]; 25°C, binding contribution): -2.1 kJ/mol
ΔG (binding) ([2]; 25°C, binding contribution): -81.2 kJ/mol
ΔH (binding) ([2]; 25°C, binding contribution): -79.1 kJ/mol
-TΔS (folding) ([2]; 25°C, folding contribution): 85.4 kJ/mol
ΔG (folding) ([2]; 25°C, folding contribution): 15.9 kJ/mol
ΔH (folding) ([2]; 25°C, folding contribution): -69.5 kJ/mol
-TΔS (association) ([2]; 25°C): 83.3 ± 1.3 kJ/mol
ΔG (association) ([2]; 25°C): -65.3 ± 0.42 kJ/mol
ΔH (association) ([2]; 25°C): -149 ± 0.84 kJ/mol
ΔCp (association) [2]: -0.63 ± 0.02 kcal mol^-1 K^-1

E9-Im9
-TΔS ([3]; 25°C): -33.9 ± 2.1 kJ/mol
ΔG ([3]; 25°C): -77.8 ± 0.42 kJ/mol
ΔCp [3]: -0.45 kcal mol^-1 K^-1

HigA2
ΔG (association) ([1]; 25°C): -61.5 kJ/mol
ΔG (association) ([1]; 25°C, listed as Full-length HigA2): -61.5 ± 3.8 kJ/mol
ΔH (association) ([1]; 25°C, competition ITC): -132 kJ/mol
−TΔS (association) ([1]; 25°C, competition ITC): 70.3 kJ/mol
ΔH (association) [1, 5]: -132 ± 4.18 kJ/mol
−TΔS (association) [1, 5]: 70.3 ± 7.95 kJ/mol
Kd ([1]; 25°C, competition ITC, value given in abstract, introduction, discussion and Figure 4 under the name HigA2, read-out: KD stated for HigA2-HigB2): 3 pM
ΔCp (association) [4]: −0.95^a kcal mol^−1 K^-1
